From patent publication US10703746B2, “Mutant IDH1 inhibitors useful for treating cancer” (THE UNITED STATES OF AMERICA, AS REPRESENTED BY THE …, priority 2014, dated 2020)

Experiments:
IDH1 R132C = IDH1 R132C (Homo sapiens, UniProt O75874, R132C); test: IDH1 R132C enzymatic assay (NADPH depletion coupled to diaphorase/resazurin); format: biochemical; settings: enzymatic inhibition, IDH1 R132C
How it was run: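 NADPH depletion, read via diaphorase/resazurin coupling, after adding substrate at 0.6 mM α-KG and 0.012 mM NADPH. Beforehand, 0.00032 mg/mL enzyme sat with compound 30 min at room temperature in pH 6.5 potassium phosphate buffer with MgCl2, glycerol and BSA.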

IDH1 R132H = IDH1 R132H (Homo sapiens, UniProt O75874, R132H); test: IDH1 R132H enzymatic assay (NADPH depletion coupled to diaphorase/resazurin); format: biochemical; settings: enzymatic inhibition, IDH1 R132H
Sequence of IDH1 R132H (O75874 whole entry R132H): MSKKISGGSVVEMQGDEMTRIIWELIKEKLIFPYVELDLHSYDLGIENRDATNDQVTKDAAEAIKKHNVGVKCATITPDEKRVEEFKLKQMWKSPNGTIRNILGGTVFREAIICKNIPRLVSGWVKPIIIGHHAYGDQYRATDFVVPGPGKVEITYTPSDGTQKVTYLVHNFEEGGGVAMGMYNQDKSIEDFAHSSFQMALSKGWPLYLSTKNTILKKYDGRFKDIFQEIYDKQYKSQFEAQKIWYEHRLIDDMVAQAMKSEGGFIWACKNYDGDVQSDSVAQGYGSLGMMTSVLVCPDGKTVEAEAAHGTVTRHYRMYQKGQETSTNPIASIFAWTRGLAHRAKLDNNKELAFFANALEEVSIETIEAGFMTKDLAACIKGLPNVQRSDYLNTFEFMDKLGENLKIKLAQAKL

Sequence of IDH1 R132C (O75874 whole entry R132C): as the sequence (O75874 whole entry R132H) above, with H132C counted along it

Row | SMILES | IC50 (IDH1 R132C) | IC50 (IDH1 R132H)
1 | CN1CCN(c2ccc(-n3c4c(cc(-c5nc(-c6ccc(Cl)cc6)cs5)c3=O)C(=O)CC(C)(C)C4)c(C(F)(F)F)c2)CC1 [Compound 493] | 5 to 20 µM | 5 to 20 µM
2 | CN1CCN(Cc2ccc(-n3c4c(cc(-c5nc(-c6ccc(Cl)cc6)cs5)c3=O)C(=O)CC(C)(C)C4)cc2)CC1 [Compound 498] | 5 to 20 µM | 1 to 5 µM
3 | CCc1cccc(CC)c1-n1c(CC(C)C)c(C(=O)N2CCNCC2)cc(-c2nc(-c3ccc(Cl)cc3)c(C#N)s2)c1=O [Compound 501] | 0.3 to 1 µM | 0.3 to 1 µM
4 | COc1ccccc1-n1c2c(cc(-c3nc(-c4ccc(Cl)cc4)cs3)c1=O)C(=O)CCC2 [Compound 503] | 1 to 5 µM | 1 to 5 µM
5 | COc1ccc(C#N)cc1-n1c2c(cc(-c3nc(-c4ccc(Cl)cc4)cs3)c1=O)C(=O)CC(C)(C)C2 [Compound 509] | 1 to 5 µM | 1 to 5 µM
6 | CCOc1ncc(Cl)cc1-n1c(C=C(C)C)c(C(=O)N2CCNCC2)cc(-c2nc(-c3ccc(C(F)(F)F)nc3)cs2)c1=O [Compound 513] | 0.3 to 1 µM | < 0.3 µM
7 | O=c1c(-c2nc(-c3ccc(Cl)cc3)cs2)cc2c(O)cccc2n1-c1cccnc1 [Compound 514] | 1 to 5 µM | > 20 µM
8 | CCOc1ncc(F)cc1-n1c(C=C(C)C)c(C(=O)N2CCNCC2)cc(-c2nc(-c3ccc(C(F)F)nc3)cs2)c1=O [Compound 520] | 1 to 5 µM | < 0.3 µM
9 | CC1(C)CC(=O)c2cc(-c3nc(-c4ccc(Cl)cc4)cs3)c(=O)n(-c3cc(Cl)ccc3Cl)c2C1 [Compound 522] | 0.3 to 1 µM | 1 to 5 µM
10 | CCc1cccc(CC)c1-n1c2c(cc(-c3nc(-c4ccc(Cl)cc4)cs3)c1=O)C(=O)CCC2 [Compound 525] | 1 to 5 µM | 1 to 5 µM
11 | COc1ccc(CN2CCN(C)CC2)cc1-n1c2c(cc(-c3nc(-c4ccc(Cl)cc4)cs3)c1=O)C(=O)CCC2 [Compound 527] | > 20 µM | > 20 µM
12 | CC(C)=Cc1c(C(=O)N2CCNCC2)cc(-c2nc(-c3ccc(Cl)cc3)cs2)c(=O)n1-c1cc(F)ccc1OC(C)C [Compound 530] | 0.3 to 1 µM | < 0.3 µM
13 | CCc1cc(C)cc(CC)c1-n1c2c(cc(-c3nc(-c4ccc(Cl)cc4)cs3)c1=O)C(=O)CCC2 [Compound 531] | 1 to 5 µM | 5 to 20 µM
14 | COc1ccc(F)cc1-n1c(C=C(C)C)c(C(=O)N2CCNCC2)cc(-c2ccn(-c3ccc(C(F)(F)F)cc3)n2)c1=O [Compound 532] | 1 to 5 µM | 0.3 to 1 µM
15 | CCc1cccc(CC)c1-n1c(C)c(C(=O)N2CCNCC2)c(O)c(-c2nc(-c3ccc(Cl)cc3)cs2)c1=O [Compound 535] | 1 to 5 µM | 0.3 to 1 µM
16 | CCc1cccc(CC)c1-n1c(CC(C)C)c(C(=O)N2CCNCC2)cc(-c2nc(-c3ccc(Cl)cc3C)c(C)s2)c1=O [Compound 540] | 1 to 5 µM | 1 to 5 µM
17 | COc1ncc(C)cc1-n1c(C=C(C)C)c(C(=O)N2CCNCC2)cc(-c2ccn(-c3ccc(C(F)(F)F)cc3)n2)c1=O [Compound 541] | 1 to 5 µM | < 0.3 µM
18 | CCc1cccc(C)c1-n1c2c(cc(-c3nc(-c4ccccc4)cs3)c1=O)C(=O)CCC2 [Compound 543] | 1 to 5 µM | 5 to 20 µM
19 | CCc1cccc(CC)c1-n1c(C=C(C)C)c(C(=O)N2CCNCC2)cc(-c2nc(-c3ccc(C(F)F)nc3)cs2)c1=O [Compound 546] | < 0.3 µM | < 0.3 µM
20 | CN1CCN(Cc2ccccc2-n2c3c(cc(-c4nc(-c5ccc(Cl)cc5)cs4)c2=O)C(=O)CC(C)(C)C3)CC1 [Compound 547] | 5 to 20 µM | 5 to 20 µM
21 | CCc1ccc(Cl)c(CC)c1-n1c2c(cc(-c3nc(-c4ccc(Cl)cc4)cs3)c1=O)C(=O)CC(C)(C)C2 [Compound 548] | < 0.3 µM | < 0.3 µM
22 | CCc1cccc(CC)c1-n1c(C2CCCCC2)c(C(=O)N2CCNCC2)cc(-c2nc(-c3ccc(Cl)cc3)cs2)c1=O [Compound 549] | 0.3 to 1 µM | 1 to 5 µM
23 | CCc1cccc(CC)c1-n1c(C=C(C)C)c(C(=O)N2CCNC(CC)C2)cc(-c2nc(-c3ccc(Cl)cc3)cs2)c1=O (stereo not shown) [Compound 550] | < 0.3 µM | < 0.3 µM
24 | CCc1cccc(CC)c1-n1c(CC(C)C)c(C(=O)N2CCNCC2)cc(-c2nc(-c3ccc(Cl)c(Cl)c3)c(C)s2)c1=O [Compound 551] | < 0.3 µM | 0.3 to 1 µM

Other lines, results leading:

Row | IC50 (IDH1 R132C) | IC50 (IDH1 R132H) | SMILES
25 | < 0.3 µM | < 0.3 µM | CCc1ccc(Cl)cc1-n1c(C=C(C)C)c(C(=O)N2CCNCC2)cc(-c2nc(-c3ccc(C(F)(F)F)nc3)cs2)c1=O [Compound 491]
26 | < 0.3 µM | < 0.3 µM | CCc1cccc(CC)c1-n1c(CC2CC2)c(C(=O)N2CCNCC2)cc(-c2nc(-c3ccc(Cl)nc3)cs2)c1=O [Compound 492]
27 | < 0.3 µM | < 0.3 µM | CC(C)=Cc1c(C(=O)N2CCNCC2)cc(-c2nc(-c3ccc(Cl)cc3)cs2)c(=O)n1-c1c(F)cccc1OC(C)C [Compound 494]
28 | < 0.3 µM | < 0.3 µM | CC(C)=Cc1c(C(=O)N2CCNCC2)cc(-c2nc(-c3ccc(Cl)cc3)cs2)c(=O)n1-c1cc(C)ccc1OC(C)C [Compound 496]
29 | < 0.3 µM | 0.3 to 1 µM | CCc1cccc(CC)c1-n1c(C=C(C)C)c(C(=O)N2CCNC(=O)C2c2ccccc2)cc(-c2nc(-c3ccc(Cl)cc3)cs2)c1=O (stereo not shown) [Compound 499]
30 | < 0.3 µM | < 0.3 µM | COc1ccc(Cl)c(-n2c(C=C(C)C)c(C(=O)N3CCNCC3)cc(-c3nc(-c4ccc(Cl)cc4)cs3)c2=O)c1 [Compound 500]
31 | < 0.3 µM | < 0.3 µM | CCc1cccc(CC)c1-n1c(C2CC2)c(C(=O)N2CCNCC2)cc(-c2nc(-c3ccc(Cl)cc3)cs2)c1=O [Compound 502]
32 | < 0.3 µM | < 0.3 µM | CCc1cccc(CC)c1-n1c(CC(C)C)c(C(=O)N2CCNCC2)cc(-c2csc(-c3ccc(Cl)cc3)n2)c1=O [Compound 505]
33 | < 0.3 µM | < 0.3 µM | CCc1cccc(CC)c1-n1c(CC2CCCO2)c(C(=O)N2CCNCC2)cc(-c2nc(-c3ccc(Cl)cc3)cs2)c1=O (stereo not shown) [Compound 506]
34 | < 0.3 µM | < 0.3 µM | CCc1ncc(F)cc1-n1c(C=C(C)C)c(C(=O)N2CCNCC2)cc(-c2nc(-c3ccc(Cl)cc3)cs2)c1=O [Compound 507]
35 | < 0.3 µM | < 0.3 µM | CCc1cccc(OC(C)C)c1-n1c(C=C(C)C)c(C(=O)N2CCNCC2)cc(-c2nc(-c3ccc(Cl)cc3)cs2)c1=O [Compound 508]
36 | < 0.3 µM | < 0.3 µM | CCc1cccc(CC)c1-n1c(C=C(C)C)c(C(=O)N2CCNCC2)cc(-c2ccn(-c3ccc(C(F)(F)F)cc3)n2)c1=O [Compound 511]
37 | < 0.3 µM | < 0.3 µM | CCc1cccc(CC)c1-n1c(C=C(C)C)c(C(=O)N2CC3(CNC3)C2)cc(-c2nc(-c3ccc(Cl)cc3)cs2)c1=O [Compound 512]
38 | < 0.3 µM | < 0.3 µM | CCc1cccc(CC)c1-n1c(C=C(C)C)c(C(=O)N2CCNCC2)cc(-c2nc(-c3ccc(C(F)(F)F)cn3)cs2)c1=O [Compound 515]
39 | < 0.3 µM | < 0.3 µM | CCc1cccc(CC)c1-n1c(CC(C)C)c(C(=O)N2CCNCC2)cc(-c2nc(-c3ccc(C(F)F)cc3)c(C)s2)c1=O [Compound 517]
40 | < 0.3 µM | < 0.3 µM | CCc1cccc(CC)c1-n1c(-c2cccn2C)c(C(=O)N2CCNCC2)cc(-c2nc(-c3ccc(Cl)cc3)cs2)c1=O [Compound 518]
41 | < 0.3 µM | 0.3 to 1 µM | CCc1cccc(CC)c1-n1c(C=C(C)C)c(C(=O)N2CCC3(CNC3)C2)cc(-c2nc(-c3ccc(Cl)cc3)cs2)c1=O [Compound 519]
42 | < 0.3 µM | < 0.3 µM | CCc1cccc(CC)c1-n1c(C=C(C)C)c(C(=O)N(C)C2CCNCC2)cc(-c2nc(-c3ccc(Cl)cc3)cs2)c1=O [Compound 523]
43 | < 0.3 µM | < 0.3 µM | CCc1ncc(F)cc1-n1c(C=C(C)C)c(C(=O)N2CCNCC2)cc(-c2nc(-c3ccc(C(F)F)cc3)cs2)c1=O [Compound 524]
44 | < 0.3 µM | < 0.3 µM | CCc1cccc(CC)c1-n1c(C=C(C)C)c(C(=O)N2CCNC(=O)C2C)cc(-c2nc(-c3ccc(Cl)cc3)cs2)c1=O (stereo not shown) [Compound 526]
45 | < 0.3 µM | < 0.3 µM | CCOc1ccc(C)cc1-n1c(C=C(C)C)c(C(=O)N2CCNCC2)cc(-c2nc(-c3ccc(Cl)cc3)cs2)c1=O [Compound 528]
46 | < 0.3 µM | < 0.3 µM | CCc1cccc(CC)c1-n1c(C=C(C)C)c(C(=O)N2CCCNC(=O)C2)cc(-c2nc(-c3ccc(Cl)cc3)cs2)c1=O [Compound 529]
47 | < 0.3 µM | < 0.3 µM | CCc1cccc(CC)c1-n1c(C=C(C)C)c(C(=O)N2CCNC[C@H]2C)cc(-c2nc(-c3ccc(C(F)(F)F)cc3)cs2)c1=O [Compound 533]
48 | < 0.3 µM | < 0.3 µM | CCOc1ncc(F)cc1-n1c(C=C(C)C)c(C(=O)N2CCNCC2)cc(-c2nc(-c3ccc(C(F)(F)F)nc3)cs2)c1=O [Compound 534]
49 | < 0.3 µM | < 0.3 µM | CCc1cccc(CC)c1-n1c(C=C(C)C)c(C(=O)N2CCNCC2COC)cc(-c2nc(-c3ccc(Cl)cc3)cs2)c1=O (stereo not shown) [Compound 536]
50 | < 0.3 µM | < 0.3 µM | CCc1cccc(CC)c1-n1c(C=C(C)C)c(C(=O)N2CCNC(=O)CC2)cc(-c2nc(-c3ccc(Cl)cc3)cs2)c1=O [Compound 537]
51 | < 0.3 µM | < 0.3 µM | CCc1ccc(OC)cc1-n1c(C=C(C)C)c(C(=O)N2CCNCC2)cc(-c2nc(-c3ccc(Cl)cc3)cs2)c1=O [Compound 539]
52 | < 0.3 µM | < 0.3 µM | CCCC1CN(C(=O)c2cc(-c3nc(-c4ccc(Cl)cc4)cs3)c(=O)n(-c3c(CC)cccc3CC)c2C=C(C)C)CCN1 (stereo not shown) [Compound 542]
53 | < 0.3 µM | < 0.3 µM | CCOc1ncc(C)cc1-n1c(C=C(C)C)c(C(=O)N2CCNCC2)cc(-c2nc(-c3ccc(Cl)cc3)cs2)c1=O [Compound 544]
